1 compound from patent publication US20060194814A1, “Benzamide compounds” (priority 2003, published 2006) can be followed below.

The target in data set [1] is T1, peripheral-type benzodiazepine receptor (PBR) (Mus musculus, UniProt P50637).
T1 construct: endogenous in cells; Y1 inferred from context
The data set is described as follows: PBR radioligand binding ([3H]PK 11195) in procaine-treated cells. The following applies: 1 μM procaine, 48 hour treatment; radioligand [3H]PK 11195. Here is the method: Radioligand binding assays were performed as previously described (Papadopoulos et al., 1990, J. Biol. Chem. 265, 3772-3779). In brief, cells were scrapped from culture flasks into PBS, dispersed by trituration, and centrifuged at 1200×g for 5 min. The cells were resuspended in PBS to a final concentration of 10-50 μg protein/100 μl. Saturation binding studies were performed in a final volume of 300 μl in the presence of the radioligand [^3H]PK 11195 (specific activity 83.5 Ci/mmol; NEN Life Science Products) at the indicated concentrations. Nonspecific binding was determined in the presence of 6 μM of the homologous non-radioactive ligand. After 180 min incubation at 4° C., the assays were stopped by filtration through Whatman GF/C filters (Clifton, N.J.) and washed with 10 ml PBS. Bound radioactivity was determined by liquid scintillation counting. Bound [^3H]PK 11195 and [^3H]cholesterol were quantified by liquid scintillation spectrometry. Dissociation constants (Kd), the number of binding sites (Bmax) and Hill coefficients (nH) for PK 11195 and cholesterol were determined by Curve-Fit (Prism version 3.0, GraphPad Software Inc., San Diego, Calif.).

A further data set concerns P-450scc enzyme. Description: Immunoblot of P-450scc expression in Y1 cells. The following applies: immunoblot of cell extracts. The format is cell-based, mouse. How it is done: At the end of the treatment protocol described above, Y1 cells at 90% confluency were washed 2 times with PBS, sonicated 15 seconds in extraction buffer and centrifuged at 18,500 g for 15 minutes at 4° C. Pellets were resuspended in ice-cold lysis buffer (1% Nonidet 40 in extraction buffer), sonicated briefly, and incubated on ice for 1 hour. After centrifugation (22,500 g×30 min, 4° C.), the supernatant was mixed in sample buffer 6× (0.27 M SDS, 0.6 M dithiothreitol, 0.18 M bromphenol blue in 7 ml of 0.5 M Tris-HCl, pH 6.8, and 3 ml glycerol) and boiled for 5 minutes. Proteins were subjected to SDS-PAGE (4-20% gradient SDS polyacrylamide gel) and electrophoretically transferred onto nitrocellulose membranes. The transblot sheets were blocked with 5% non fat dry milk in 25 mM Tris HCl, pH 7.5, 150 mM NaCl, and 0.1% Tween 20 overnight at 4° C. Membranes were then incubated with appropriately diluted primary antibodies 1:800 for anti-P-450scc (Research Diagnostics Inc. Flanders, N.J.) and 1:200 for anti-StAR (Amri et al., 1996), and the reaction was detected by a peroxidase-conjugated secondary antibody (Santa Cruz Biotechnology, Santa Cruz, Calif.) and enhanced chemiluminescence (Amersham Life, Arlington Heights, Ill.). The densities of the appropriate bands were determined using the OptiQuant Acquisition & Analysis software (Packard BioScience).
For orientation: Immunoblotting shows a protein as a band on a membrane.

In data set [2] the test system is H295R human adrenal tumor cells. The data set is described as follows: MTT mitochondrial function/cell viability in H295R cells. It is filed as cell-based. How it is done: (§1) Cell viability at the end of the incubation protocol described above was assessed using the mitochondrial integrity 3-(4,5-dimethylthiazol-2-yl)-2,5-diphenyl tetrazolium bromide (MTT) assay (Trevigen, Gaithersburg, Md.). Briefly, 10 l of the MTT solution were added to the cells in 100 l medium. After an incubation period of 4 hours, 100 l of detergent were added and cells were incubated overnight at 37° C. Formazan blue formation was quantified at 600 nm and 690 nm using the Victor quantitative detection spectrophotometer (EGG-Wallac, Gaithersburg, Md.) and the results expressed as (OD600-OD690).

The next data set has as its target T2, P-450scc (Mus musculus, UniProt Q9QZ82).
T2 construct: endogenous in cells; host or cells: Y1 mouse adrenal tumor cells
T2 sequence (Q9QZ82 37-526): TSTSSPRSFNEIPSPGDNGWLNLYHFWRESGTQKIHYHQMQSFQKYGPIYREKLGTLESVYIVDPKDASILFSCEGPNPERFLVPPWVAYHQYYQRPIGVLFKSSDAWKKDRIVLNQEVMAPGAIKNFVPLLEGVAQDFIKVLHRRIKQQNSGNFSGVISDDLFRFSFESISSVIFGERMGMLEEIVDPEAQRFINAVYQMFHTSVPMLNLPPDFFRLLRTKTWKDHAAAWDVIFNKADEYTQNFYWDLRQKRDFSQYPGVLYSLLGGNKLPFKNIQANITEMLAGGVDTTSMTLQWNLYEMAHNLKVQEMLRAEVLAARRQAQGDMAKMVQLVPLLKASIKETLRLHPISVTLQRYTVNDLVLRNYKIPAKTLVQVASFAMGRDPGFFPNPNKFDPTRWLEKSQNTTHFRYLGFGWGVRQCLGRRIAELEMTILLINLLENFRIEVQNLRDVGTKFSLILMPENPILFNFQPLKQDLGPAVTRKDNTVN
The data set is described as follows: 22R-hydroxycholesterol-induced 20á-hydroxyprogesterone synthesis in Y1 cells. It is filed as cell-based. How it is done:
[…] […] The synthesis of 20 —OH progesterone and progesterone in Y1 and MA-10 cell media respectively were measured by RIA (Brown et al., 1992). H295R human adrenal tumor cells were seeded in 48-well plates at 10^5 cells/well and incubated for 24 hours. […] At the end of the incubation time period, cells were treated with 1 mM dbcAMP for 48 hours. Cortisol levels in the media were determined by radioimmunoassay as previously described (Amri et al., 1996).

The subject of the next data set is HMG-CoA reductase mRNA. The data set is described as follows: HMG-CoA reductase mRNA expression by Q-PCR in Y1 cells. It is filed as cell-based, mouse. How it is done: After treatment, cells were stimulated with 1 mM dbcAMP for 24 hours. At the end of the incubation, total cell RNA was extracted using RNA STAT-60 (Tel-Test Inc, Friendswood, Tex.) according to the manufacturer's instructions. HMG-CoA reductase mRNA was quantified by Q-PCR using the ABI Prism 7700 sequence detection system (Perkin-Elmer/Applied Biosystems, Foster City, Calif.). RT reaction was performed using TaqMan® Reverse Transcription Reagents with 1 g total RNA and random hexamers as primers for each reaction according to the manufacturer's instructions. For quantifying mouse HMG-CoA reductase mRNA with Q-PCR, the primers were designed according to GenBank Accession Number BC 019782 using PE/AB Primer Express software, which is specifically designed for the selection of primers and probes. The forward primer was 5′-[…]-3′ (22 nucleotides; SEQ ID NO:1) and reverse primer was 5′-[…]-3′ (23 nucleotides; SEQ ID NO:2), respectively. The primers were synthesized by Bio-Synthesis Inc. (Lewisville, Tex.). Reactions were performed in a reaction mixture consisting of a 20 l volume solution containing 10 l SYBR® Green PCR Master Mix and 1 l primers mix (5 M each) with 2 l cDNA.

In data set [3] the test system is MA-10 mouse Leydig tumor cells. The format is cell-based. How it is done: as §1

Structures can show the parent of a compound that is named as a salt.

As to `CCN(CC)CCOC(=O)c1ccc(N)cc1` [SP01, procaine HCl], in data set [1], the “Bmax of PBR ligand binding in procaine-treated cells” value is listed as 29±4 pmol/mg protein. The “effect on expression of the P-450scc enzyme” value with P-450scc enzyme is “did not modify”. Further, the “effect on dbcAMP-induced change of mitochondrial function (MTT)” value in data set [2] is listed as “protected against the dbc-AMP-induced change of mitochondrial function”. Further, on P-450scc, the “effect on 22R-hydroxycholesterol-induced steroidogenesis” value was “did not inhibit”. Moreover, the “effect on dbcAMP-induced HMG-CoA reductase mRNA levels” value in the data set on HMG-CoA reductase mRNA (pretreatment for 24 hours) was “reduced in a dose-dependent manner”. Besides, the “earliest treatment time inhibiting dbcAMP-induced HMG-CoA reductase mRNA expression” value in the data set with HMG-CoA reductase mRNA (time-course) was found to be 6 h. For the same compound, in data set [3], the “effect on cell viability (MTT)” value is listed as “did not affect MA-10 cell viability”.
